Measured values published in patent US20060258703A1, “Remedy for pruritus comprising piperidine derivative as the active ingredient” (ONO PHARMACEUTICAL CO., LTD., priority 2003, published 2006).

Test system: ovalbumin-induced eye scratching behavior in actively sensitized male Hartley guinea pigs
Experiment: inhibitory effect on eye itching using albumin induced eye itching model
Format: in vivo, guinea pig
Details: for number of eye scratching times / eye scratching behavior inhibition ratio: 10 μL/eye instilled 30 min before ovalbumin, n=8; for number of eye scratching times: counted for 60 min, average; for eye scratching behavior inhibition ratio: ratio to control (average)
Description: The inhibitory effect on eye itching of piperidine derivatives of the present invention was studied using albumin induced eye itching model.
1. The test of inhibitory effect on eye itching using albumin induced eye itching model
Aluminum hydroxide gel absorption ovalbumin (20 μg/mL)was dissolved in physiological saline solution, each solution ([…]) was injected subconjunctivally to the both eyeballs of five-week-old male Hartley guinea pigs to sensitize them actively. 14 days after sensitization, 1.0% (W/V) of ovalbumin physiological saline solution was instilled into both their eyes, 10 μL/eye, respectively.
As test compounds, a suspension of 0.01% (W/V) and 0.1% (W/V) of {4-cyano-4-[3-(cyclopentyloxy)-4-(difluoromethoxy)phenyl]piperidine-1-yl}acetic acid monohydrate (hereinafter, it is the compound A) in 0.1% hydroxypropylmethylcellulose was prepared and it was instilled into both eyes of the above-mentioned guinea pigs, 10 μL/eye, respectively, 30 minutes before the instillation of ovalbumin. 0.1% hydroxypropylmethylcellulose was used as control.
The behavior of guinea pigs for 60 minutes after ovalbumin instillation was video recorded. The inhibitory effect on eye itching was evaluated by counting each number of eye scratching times in case of instillation of each test compound solution and control. […] In addition, the number of example is eight. eye scratching behavior inhibition ratio=100−([the number of eye scratching times of the test compound]÷[the number of eye scratching times of control])×100

For `N#CC1(c2ccc(OC(F)F)c(OC3CCCC3)c2)CCN(CC(=O)O)CC1.O` [Compound A, {4-cyano-4-[3-(cyclopentyloxy)-4-(difluoromethoxy)phenyl]piperidine-1-yl}acetic acid monohydrate], the “number of eye scratching times” value (0.01% (W/V) suspension in 0.1% hydroxypropylmethylcellulose) was 44.6 times, the “eye scratching behavior inhibition ratio” value (0.01% (W/V) suspension) was 34.4% and the “number of eye scratching times” value (0.1% (W/V) suspension in 0.1% hydroxypropylmethylcellulose) was 29.0 times. For the same compound, the “eye scratching behavior inhibition ratio” value (0.1% (W/V) suspension) was 57.4% and the “number of eye scratching times compared to control (in words)” value (guinea pigs given 0.01% and 0.1% eye instillation, extent almost depends on concentration) was “decreases significantly compared to control”.
